Source: US8357375B2, “Process for the preparation and use of a bivalent vaccine against morphine-heroine addiction” (Instituto Nacional de Psiquiatria Ramon de la Fuente Muniz, priority 2004, dated 2013)

tested on: anti-morphine-heroin serum antibodies; assay: competitive immunoenzymatic ELISA for antibody specificity; format: binding, rat; settings: competitive antigen, nM-μM range

Row | Molecule | cross-recognition by anti-morphine-heroin serum antibodies
1 | CN1CC[C@]23c4c5ccc(O[C@@H]6O[C@H](C(=O)O)[C@@H](O)[C@H](O)[C@H]6O)c4O[C@H]2[C@@H](O)C=C[C@H]3[C@H]1C5 [morphine-3-glucuronide] | cross-recognize
2 | CN1CC[C@]23c4c5ccc(O)c4O[C@H]2[C@@H](O[C@@H]2O[C@H](C(=O)O)[C@@H](O)[C@H](O)[C@H]2O)C=C[C@H]3[C@H]1C5 [morphine-6-glucuronide] | cross-recognize
3 | O=C1CC[C@@]2(O)[C@H]3Cc4ccc(O)c5c4[C@@]2(CCN3CC2CC2)[C@H]1O5 [naltrexone] | no cross-recognition
4 | β-endorphin (YGGFMTSEKSQTPLVTLFKNAIIKNAYKKGE; Beta-endorphin; UniProt P01189 237-267, looked up) [endogenous opioid peptide produced in the CNS of mammals] | not able to cross-recognize
